The subject of one series is MEL cells. Briefly: Inhibitor treatment of MEL cells, real-time RT-PCR of globin mRNA. In kind it is cell-based, Mouse. Conditions: for effect on expression levels of Hbb-b1/2 (adult globin): 48 hours treatment. How it is done:
For studies testing inhibitors on MEL cells, the cells were treated with selected inhibitors or vehicle in culture medium (RPMI 1640 medium with 10% fetal bovine serum) for 48 hours and were subsequently harvested and analyzed for relative mRNA levels of Hbb-bh1 and Hbb-y using real-time RT-PCR.
Primers as used in the Examples as described herein are summarized below.
Background: Quantitative PCR measures a nucleic acid by following its amplification.

Series [1] has as its system human CD34+ HSPCs. The series is described as follows: Real-time RT-PCR of globin mRNA in erythroid cells differentiated from human CD34+ HSPCs. The series is classed as cell-based. Conditions: 14 days of differentiation; for α-globin mRNA levels: vs DMSO (FIG. 8B). How it is done: Human CD34^+ HSPCs treated with PTC596 (PTC) or MI-3454 (MI) at indicated concentrations or vehicle (DMSO) were induced to undergo erythroid differentiation. Cells were harvested after 14 days of differentiation for real-time RT-PCR analysis of human fetal γ (FIG. 8A), embryonic […] (FIG. 8B), and adult β (FIG. 8C) globin mRNA levels. Relative expression levels were calculated by normalizing to GAPDH mRNA levels in the same sample and also to cells treated with DMSO.
(§1) Primary human mobilized CD34^+ HSPCs (StemCell Technologies Inc.) were initially cultured in expansion medium containing StemSpan-XF Medium (StemCell Technologies Inc.) with 1× CC 100 cytokine mix (StemCell Technologies Inc.). Cells were maintained in this expansion medium at a density of 0.1-1×10^6 cells/ml for a total of 4 days with media changes every two days. On day 4, cells were induced to undergo erythroid differentiation in three phases as known in the art. Briefly, base medium for differentiation contains Iscove's Modified Dulbecco's Medium plus 2% human peripheral blood plasma (Innovative Research), 3% human AB serum (Sigma), […] human holo-transferrin (Sigma), 3 IU/mL heparin (Sigma), […] human insulin (Sigma), and 1% Penicillin-Streptomycin (Life Technologies Inc.). In the first phase (day 0 to day 6), cells were cultured at a concentration of 10^5 cells/ml in the presence of 10 ng/mL human stem cell factor (Biolegend), 1 ng/mL human IL-3 (Biolegend), and 3 IU/mL human erythropoietin (Janssen). In the second phase (day 7 to day 11), IL-3 was omitted from the first phase culture medium. In the third phase (day 12 to day 16), both stem cell factor and IL-3 were omitted and the concentration of transferrin was adjusted to 1 mg/ml. Cell density also was adjusted to 10^6 cells/ml in the beginning of this phase. Drug treatments were started at day 2 of expansion condition and maintained thereafter. New drugs were added every 1-2 days with medium change.
The effects of PTC596 and MI-3454 on human fetal (γ) and embryonic (ε) globin expression in erythroid cells produced in culture from primary human CD34^+ hematopoietic stem and progenitor cells (HSPCs) were further tested. […] PTC596, MI-3454, or control DMSO were added to the culture from day 2 of the expansion phase and were replenished upon media change every two days.

Another series relates to γ-Globin. The series is described as follows: Western blotting of γ-Globin in erythroid-differentiated human CD34+ HSPCs. The series is classed as cell-based. Conditions: erythroid differentiation 14 days. The procedure:
(§2) Western blotting analysis of protein levels of […], BMI1, MEN1, and control ACTIN in CD34^+ HSPCs were treated with PTC596 (PTC) at indicated concentrations (FIG. 9A), MI-3454 (MI) at indicated concentrations (FIG. 9B), or DMSO and induced to undergo erythroid differentiation for 14 days.
as §1, with “In the second phase (day 7 to day 11), IL-3 was omitted from the first phase culture medium. In the third phase (day 12 to day 16), both stem cell factor and IL-3 were omitted and the concentration of transferrin was adjusted to 1 mg/ml. Cell density also was adjusted to 10^6 cells/ml in the beginning of this phase. Drug treatments were started at day 2 of expansion condition and maintained thereafter. New drugs were added every 1-2 days with medium change.” left out
Background: Immunoblotting shows a protein as a band on a membrane.

For the next series, the target named is T1, BMI1 (Homo sapiens, UniProt P35226).
T1 construct: Western blotting analysis of protein levels of […], BMI1, MEN1, and control ACTIN in CD34^+ HSPCs; host or cells: primary human mobilized CD34+ HSPCs, erythroid differentiation for 14 days
T1 sequence (P35226 1-326): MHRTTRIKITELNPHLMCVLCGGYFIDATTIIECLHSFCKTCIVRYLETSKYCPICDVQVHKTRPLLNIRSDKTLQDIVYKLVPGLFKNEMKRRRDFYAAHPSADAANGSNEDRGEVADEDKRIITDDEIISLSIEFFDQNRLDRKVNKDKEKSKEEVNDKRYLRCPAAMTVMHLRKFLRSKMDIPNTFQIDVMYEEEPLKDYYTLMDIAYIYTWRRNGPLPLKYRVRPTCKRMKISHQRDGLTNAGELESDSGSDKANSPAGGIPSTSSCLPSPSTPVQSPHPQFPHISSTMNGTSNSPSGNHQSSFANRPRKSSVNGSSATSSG
Briefly: Western blotting of BMI1 in erythroid-differentiated human CD34+ HSPCs. The series is classed as cell-based. Conditions: erythroid differentiation 14 days. The procedure:
as §2
as §1, with “In the second phase (day 7 to day 11), IL-3 was omitted from the first phase culture medium. In the third phase (day 12 to day 16), both stem cell factor and IL-3 were omitted and the concentration of transferrin was adjusted to 1 mg/ml. Cell density also was adjusted to 10^6 cells/ml in the beginning of this phase. Drug treatments were started at day 2 of expansion condition and maintained thereafter. New drugs were added every 1-2 days with medium change.” left out

Series [2] deals with human CD34+ HSPCs. Briefly: Flow cytometry of F-cells (anti-HbF) in cultures of human CD34+ HSPCs. The series is classed as cell-based. Conditions: erythroid differentiation 14 days.
From the text: Cells were fixed with glutaraldehyde, permeabilized, and stained with a PE-conjugated anti-HbF antibody. The percentages of F-cells are indicated.
as §1, with “In the third phase (day 12 to day 16), both stem cell factor and IL-3 were omitted and the concentration of transferrin was adjusted to 1 mg/ml. Cell density also was adjusted to 10^6 cells/ml in the beginning of this phase. Drug treatments were started at day 2 of expansion condition and maintained thereafter. New drugs were added every 1-2 days with medium change.” left out

The subject of series [3] is human CD34+ HSPCs. Briefly: Cytospin analysis of erythroid differentiation of human CD34+ HSPCs. Conditions: after 14 days of differentiation. In kind it is cell-based. The procedure: FIG. 7 is a cytospin analysis showing erythroblasts and reticulocytes in cultures of human CD34^+ HSPCs treated with PTC596 and MI-3454 and induced to undergo erythroid differentiation for 14 days. Cells were stained using Hema 3 staining system (Fisher Scientific). Scale bar, […].
as §1, with “In the second phase (day 7 to day 11), IL-3 was omitted from the first phase culture medium. In the third phase (day 12 to day 16), both stem cell factor and IL-3 were omitted and the concentration of transferrin was adjusted to 1 mg/ml. Cell density also was adjusted to 10^6 cells/ml in the beginning of this phase. Drug treatments were started at day 2 of expansion condition and maintained thereafter. New drugs were added every 1-2 days with medium change.” left out

A further series deals with T2, MEN1 (Homo sapiens, UniProt O00255).
T2 construct: Western blotting analysis of protein levels of […], BMI1, MEN1, and control ACTIN in CD34^+ HSPCs; host or cells: primary human mobilized CD34+ HSPCs, erythroid differentiation for 14 days
T2 sequence (O00255 1-610): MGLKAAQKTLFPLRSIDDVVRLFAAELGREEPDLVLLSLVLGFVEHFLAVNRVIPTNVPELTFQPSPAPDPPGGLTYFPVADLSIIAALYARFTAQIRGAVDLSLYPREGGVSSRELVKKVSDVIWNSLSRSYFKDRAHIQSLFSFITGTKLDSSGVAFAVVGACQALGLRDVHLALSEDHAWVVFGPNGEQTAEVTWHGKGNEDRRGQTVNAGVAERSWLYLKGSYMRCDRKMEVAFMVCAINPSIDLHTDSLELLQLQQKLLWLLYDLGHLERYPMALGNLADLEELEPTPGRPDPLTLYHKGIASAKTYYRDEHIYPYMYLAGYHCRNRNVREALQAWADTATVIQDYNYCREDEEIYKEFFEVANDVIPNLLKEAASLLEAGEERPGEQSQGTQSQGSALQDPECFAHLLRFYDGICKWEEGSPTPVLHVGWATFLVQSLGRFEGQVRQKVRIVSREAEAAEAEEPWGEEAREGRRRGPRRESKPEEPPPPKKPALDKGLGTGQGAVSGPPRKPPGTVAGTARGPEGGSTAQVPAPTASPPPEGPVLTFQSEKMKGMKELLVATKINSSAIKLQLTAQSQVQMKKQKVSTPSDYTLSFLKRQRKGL
Briefly: Western blotting of MEN1 (MENIN) in erythroid-differentiated human CD34+ HSPCs. The series is classed as cell-based. Conditions: erythroid differentiation 14 days. The procedure:
as §2
as §1, with “In the second phase (day 7 to day 11), IL-3 was omitted from the first phase culture medium. In the third phase (day 12 to day 16), both stem cell factor and IL-3 were omitted and the concentration of transferrin was adjusted to 1 mg/ml. Cell density also was adjusted to 10^6 cells/ml in the beginning of this phase. Drug treatments were started at day 2 of expansion condition and maintained thereafter. New drugs were added every 1-2 days with medium change.” left out

Setting [4] is: 50 nM, 48 hours, relative to DMSO, normalized to Rpl4.
Setting [5] is: tested concentrations, 48 hours.

Regarding `Cc1nc2ccc(F)cc2n1-c1nc(N)c(F)c(Nc2ccc(C(F)(F)F)cc2)n1` [PTC596], in the series on MEL cells (setting [4]), the “increase of Hbb-bh1 mRNA levels” value is around 20 fold and the “increase of Hbb-y mRNA levels” value was around 15 fold. Besides, in the series with MEL cells, the “effect on expression levels of Hbb-b1/2 (adult globin)” value is “minimal effects”. For the same molecule, in the series on human CD34+ HSPCs [1] (vs DMSO), the “percentage of γ-globin expression levels in total β-like globin (β+γ+ε) expression levels” value is recorded as “significant increase” and the “γ-globin mRNA levels” value is “significantly increased”. In the series with human CD34+ HSPCs [1], the “α-globin mRNA levels” value is listed as “significantly increased”. In addition, in the series on γ-Globin, the γ-Globin protein levels result is “increased”. On BMI1, the BMI1 protein levels entry is “reduced”. Moreover, the “percentage of F-cells” value with human CD34+ HSPCs [2] is recorded as “higher percentage”. In addition, the “erythroid differentiation (erythroblasts and reticulocytes observed)” value with human CD34+ HSPCs [3] is “not blocked”.

Regarding `CCN(C(=O)c1cc(F)ccc1Oc1cncnc1N1CC2(CCN(C[C@H]3CC[C@H](NS(=O)(=O)CC)CC3)CC2)C1)C(C)C` [SNDX-5613], the “Hbb-bh1 mRNA levels” value with MEL cells (setting [5]) is listed as “significantly increased”.

Turning to `CNc1nc(NC2CCN(Cc3ccc4c(cc(C#N)n4CC45CC(NC=O)(C4)C5)c3C)CC2)c2cc(CC(F)(F)F)sc2n1` [MI-3454], the “effect on expression levels of Hbb-b1/2 (adult globin)” value with MEL cells was “minor changes”. Further, in the series on MEL cells (setting [5]), the “Hbb-bh1 mRNA levels” value was “significant increases” and the “Hbb-y mRNA levels” value was “significant increases”. In the series with human CD34+ HSPCs [1] (vs DMSO), the “percentage of γ-globin expression levels in total β-like globin (β+γ+ε) expression levels” value is “significant increase”, the “β-globin mRNA levels” value was “increase” and the “γ-globin mRNA levels” value is “significantly increased”. For the same molecule, the “α-globin mRNA levels” value in the series with human CD34+ HSPCs [1] is reported as “significantly increased”. In addition, in the series with γ-Globin, the γ-Globin protein levels entry is reported as “increased”. Further, the MENIN protein levels result on MEN1 is “reduced”. Also, the “percentage of F-cells” value in the series with human CD34+ HSPCs [2] is given as “higher percentage”. Moreover, in the series on human CD34+ HSPCs [3], the “erythroid differentiation (erythroblasts and reticulocytes observed)” value is recorded as “not blocked”.

For the origin of these results see patent US20240100049A1, “REACTIVATION OF EMBRYONIC AND FETAL HEMOGLOBIN” (The Henry M. Jackson Foundation for the Advancement of …, priority 2021, published 2024).
